Results taken from patent US4716238A, “Chromene derivatives useful as insecticides” (Alkaloida Vegyeszeti Gyar, priority 1983, dated 1987).
Read-outs that look alike come from different tables or passages of the source.

How the values were obtained:
cabbage butterfly = assay: Cabbage butterfly test (sprayed cabbage seedlings, II. stage larvae); assay type: in vivo; conditions: Pieris brassicae, 50 EC composition; for mortality at 0.1 % / survival at 0.1 %: concentration 0.1%; for mortality at 0.1 % / mortality at 0.01 %: read-out: Killing rate of larvae; for mortality at 0.01 % / survival at 0.01 %: concentration 0.01%
Procedure: cabbage butterfly (Pieris brassicae)
From the 50 EC of the test compound a dilution series is prepared with water and the host seedlings (cabbage) are sprayed with this composition until the spray runs down. The spray is allowed to dry whereupon 20 young larvae of the II. stage are placed on each treated plant and the seedlings are kept under so-called "long-day" illumination (18 hours of illumination and 6 hours of darkness). The nibbled plants are replaced by similarly sprayed plants if necessary. The killing rate of the insects, the growth rate of the larvae and the morphological deformations of the surviving nymphs and adults are registered.
In the 50 EC compositions P1 and test compound 1 are used in a concentration of 0.01%, and the other active ingredients in a concentration of 0.1%.

[1] = test system: Caenorhabditis elegans adult nematodes; assay: Nematocidal effect on Caenorhabditis elegans adult nematodes; assay type: in vivo; conditions: for Size of descendant population: control normal; for mortality at 200 µg/mL / mortality at 400 µg/mL: Caenorhabditis elegans, read-out: Lethality
Procedure: Caenorhabditis elegans 0.5 ml of the acetonous solution of the test compound is applied onto a NGM agar plate free from bacteria in a Petri dish. After the acetone was dried 25-30 young adults are placed on the plate. After 24 hours the surviving and killed […] are counted.

mustard beetle = assay: Mustard beetle test; assay type: in vivo; conditions: Phaedon cochleariae; concentration 1%; control 100%; read-out: Survival of adults
Procedure: Two weeks old mustard seedlings are sprayed with a solution of 0.1 g of the test compound, 0.5 ml of dimethyl sulfoxide, and 10 μl of 50 EC composition in 10 ml of water. After the spray is dried, 20 mustard larvae of the II. stage are placed on each plant. The sprayed plants are changed every second day. The evaluation is based on the number of imagos hatching from the nymphs.

domestic fly = assay: Domestic fly test (larvae on treated nutrient medium); assay type: in vivo; conditions: Musca domestica
Procedure: domestic fly (Musca domestica)
The fly larvae are grown on a nutrient medium of the following composition: 2 ml of milk; 2 ml of water; 2 g of wheat bran; 0.1 ml of saturated alcoholic nipagin solution.
The nutrient medium is filled into cylindrical glass vials (30×100 mm) and 25 fly larvae are raised in each vial. The test compound is dissolved in milk; the end concentration (related to milk) amounts to 0.1% which corresponds to 0.05% (related to the total nutrient medium). The solution of the active ingredient is admixed with the nutrient medium whereupon […] of domestic fly larvae of the I. stage are placed into each vial and the vials are closed with a hard cotton-wool stopper. The nymphs emerging from the larvae are collected in each vial, counted and kept in a petri dish (diameter 25 mm) until flies hatch from the nymphs. The hatched flies are counted.

cotton bug = assay: Cotton bug test (topical application on larvae of II. stage); assay type: in vivo, Dysdercus fasciatus
Procedure: cotton bug (Dysdercus fasciatus) A dilution series is prepared from the test compound with acetone, and 0.2 μl of each dilution is topically applied onto the back part of larvae of the II. stage of growth with the aid of a Hamiltion syringe. The active ingredient is absorbed through the cuticula. The animals are kept in a large glass and fed with cotton grains and water. After adult shedding the surviving insects are observed for eventual adultoid symptoms, the egg-reproduction and the development of the ovules is evaluated too. (Remark: in the cotton bug test 50 insects are used). In each Table the control value are disclosed too.

insects = conditions: prior art; cited from earlier work

| Compound | mortality at 0.1 % (cabbage butterfly) | Size of descendant population ([1]; 200 μg/ml) | Size of descendant population ([1]; 400 μg/ml) | survival at 0.1 % (domestic fly; read-out: Survival, adult) | survival at 0.1 % (domestic fly; read-out: Survival, nymph) | survival at 0.1 % (cabbage butterfly; read-out: Survival, adult) | survival at 0.1 % (cabbage butterfly; read-out: Survival, nymph) | also measured |
| --- | --- | --- | --- | --- | --- | --- | --- | --- |
| CCC(C)Oc1ccc2c(c1OC)OC(C)(C)C=C2 (centres unmarked) [Compound 89, 7-sec.butoxy-8-methoxy-2,2-dimethyl-2H-chromene] | 100% | reduced | reduced | – | – | – | – | mortality at 200 µg/mL ([1]; 24 h): 25%; mortality at 400 µg/mL ([1]; 24 h): 85% |
| CCCOc1ccc2c(c1OC)OC(C)(C)C=C2 [Compound 88, 7-n-propoxy-8-methoxy-2,2-dimethyl-2H-chromene] | 100% | – | – | 0% | 12.7% | – | – | survival at 1 % (mustard beetle): 45% |
| CC(C)=CCOc1cc2c(cc1OCC=C(C)C)OC(C)(C)C=C2 [Compound 60] | – | – | – | – | – | – | – | LD50 (cotton bug): 0.6 μg/insect |
| COc1cc2c(cc1OCC(C)C)OC(C)(C)C=C2 [Compound 67] | – | – | – | – | – | – | – | LD50 (cotton bug): 0.4 μg/insect |
| COc1c(OC(C)C)ccc2c1OC(C)(C)C=C2 [Compound 90, 7-isopropoxy-8-methoxy-2,2-dimethyl-2H-chromene] | 64% | reduced | reduced | 0% | 12% | 32% | 36% | mortality at 200 µg/mL ([1]; 24 h): 60%; mortality at 400 µg/mL ([1]; 24 h): 73% |
| COc1cc2c(cc1OC)OC(C)(C)C=C2 [Compound P2, reference compound] | – | no descendants | no descendants | – | – | – | – | AJH effect (cotton bug): 1 μg/insect; LD50 (cotton bug): 0.6 μg/insect; Sterilizing effect (cotton bug): 10 μg/insect; mortality at 200 µg/mL ([1]; 200 μg/ml, 24 hours): 100%; mortality at 400 µg/mL ([1]; 400 μg/ml, 24 hours): 100% |
| CCOc1ccc2c(c1OC)OC(C)(C)C=C2 [Compound 87] | 76% | reduced | no descendants | 4.2% | 5.4% | 24% | 24% | mortality at 200 µg/mL ([1]; 24 h): 40%; mortality at 400 µg/mL ([1]; 24 h): 100% |
| CC(C)COc1ccc2c(c1)OC(C)(C)C=C2 [Compound 3] | – | – | – | 28.2% | 100% | – | – | – |
| COc1cc2c(cc1OC(C)C)OC(C)(C)C=C2 [6-methoxy-7-isopropoxy-2,2-dimethyl-chromene] | – | – | – | – | – | – | – | activity relative to natural P1 and P2 (insects): considerably more active than natural P1 and P2 |
| C=CCOc1cc2c(cc1OCC=C)OC(C)(C)C=C2 [Compound 58] | – | some descendants | no descendants | – | – | – | – | mortality at 200 µg/mL ([1]; 24 h): 40%; mortality at 400 µg/mL ([1]; 24 h): 90% |
| Cc1cc(OC(C)C)cc2c1C=CC(C)(C)O2 [Compound 19] | – | – | – | 27.6% | 50.9% | – | – | – |
| CCC(C)Oc1cc2c(cc1OC)C=CC(C)(C)O2 (centres unmarked) [Compound 66] | – | – | – | – | – | – | – | AJH effect (cotton bug): 0.1 μg/insect; LD50 (cotton bug): 0.4 μg/insect |
| CCC(C)Oc1cc(OC)c2c(c1)OC(C)(C)C=C2 (centres unmarked) [Compound 109] | 100% | – | – | – | – | – | – | – |
| CCOc1cc2c(cc1OC)C=CC(C)(C)O2 [Compound P3, 6-methoxy-7-ethoxy-2,2-dimethyl-2H-chromene, reference compound] | – | some descendants | no descendants | – | – | – | – | mortality at 200 µg/mL ([1]; 24 h): 70%; mortality at 400 µg/mL ([1]; 24 h): 90%; activity relative to natural P1 and P2 (insects): considerably more active than natural P1 and P2 |
| CCC(C)Oc1cc(C)c2c(c1)OC(C)(C)C=C2 (centres unmarked) [Compound 20] | 11% | – | – | 12.5% | 25.4% | 14% | 19% | – |
| CCOc1cc(C)c2c(c1)OC(C)(C)C=C2 [Compound 17] | 81% | – | – | 14.8% | 40% | 19% | 19% | – |
| Cc1cc(OCC(C)C)cc2c1C=CC(C)(C)O2 [Compound 21] | 100% | – | – | 25.5% | 45.7% | – | – | survival at 1 % (mustard beetle): 27% |
| COc1ccc2c(c1)OC(C)(C)C=C2 [Compound P1, reference compound] | – | reduced | no descendants | – | – | – | – | mortality at 0.01 % (cabbage butterfly): 41%; survival at 0.01 % (cabbage butterfly; read-out: Survival, adult): 50%; survival at 0.01 % (cabbage butterfly; read-out: Survival, nymph): 59%; survival at 0.1 % (domestic fly; 0.1% related to milk (0.05% of total nutrient medium), control 100%, read-out: Survival, adult): 33.3%; survival at 0.1 % (domestic fly; 0.1% related to milk (0.05% of total nutrient medium), control 100%, read-out: Survival, nymph): 100%; mortality at 200 µg/mL ([1]; 200 μg/ml, 24 hours): 44%; mortality at 400 µg/mL ([1]; 400 μg/ml, 24 hours): 98% |
| COc1cc(OCC(C)C)cc2c1C=CC(C)(C)O2 [Compound 110, 5-methoxy-7-isobutoxy-2,2-dimethyl-2H-chromene] | 100% | – | – | 0% | 0% | – | – | – |
| Cc1cc(OC2CCCC2)cc2c1C=CC(C)(C)O2 [Compound 22] | 100% | – | – | 31.8% | 52.7% | – | – | – |
| CCCOc1ccc2c(c1)OC(C)(C)C=C2 [Compound 1] | – | – | – | – | – | – | – | mortality at 0.01 % (cabbage butterfly): 52%; survival at 0.01 % (cabbage butterfly; read-out: Survival, adult): 39%; survival at 0.01 % (cabbage butterfly; read-out: Survival, nymph): 48% |
| CCCOc1cc(OC)c2c(c1)OC(C)(C)C=C2 [Compound 107] | 88% | – | – | 6.4% | 9.1% | 12% | 12% | – |
| COc1cc(OC(C)C)cc2c1C=CC(C)(C)O2 [Compound 108] | 87% | – | – | – | – | 9% | 13% | – |
| COc1c(OCC(C)C)ccc2c1OC(C)(C)C=C2 [Compound 91, 7-isobutoxy-8-methoxy-2,2-dimethyl-2H-chromene] | 93% | – | – | – | – | 7% | 7% | – |
| C#CCOc1cc(C)c2c(c1)OC(C)(C)C=C2 [Compound 30] | 83% | some descendants | no descendants | 10.6% | 50.9% | 17% | 17% | Remark ([1]; 200 μg/ml): paralysis; Remark ([1]; 400 μg/ml): paralysis; mortality at 200 µg/mL ([1]; 24 h): 20%; mortality at 400 µg/mL ([1]; 24 h): 30% |
